Experimental data reported in patent US10975056B2 (GlaxoSmithKline Intellectual Property Development Limited, priority 2016, dated 2021).
Values joined by “and” are separate entries in the source; they are usually repeats but may differ in a detail not shown here. Equal values may be shown once. Where a name gives a salt, the structure may show the parent alone. Read-outs that look alike come from different tables or passages of the source.

What was measured:
DNMT3B = DNMT3B (Homo sapiens (Human), UniProt Q9UBC3); test: DNMT3B breaklight assay; assay type: biochemical
[1] = test system: erythroid progenitor cells (EPCs); test: Fetal hemoglobin (HbF) ELISA in day 7 erythroid progenitor cells; assay type: cell-based, human; conditions: Homo sapiens, Erythroid progenitor cell, HbF ELISA, day 7 EPCs, 5 days; read-out: EPC ELISA (pEC50 category) (converted);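 also: for fetal hemoglobin induction normalized to vehicle-treated cells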
Outline: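 HbF induction was read by anti-HbF sandwich ELISA (HRP/TMB, OD450) on lysates and normalized to vehicle-treated cells. Cells were day 7 erythroid progenitors derived from human bone marrow CD34+ cells, seeded at 1,000/well with 3 U/mL rhEPO. Compound was given for 5 days at 37 °C at final concentrations […].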

DNMT1 = DNMT1 (Homo sapiens, UniProt P26358); test: DNMT1 biochemical activity, breaklight assay and/or SPA assay
Sequence of DNMT1 (P26358 whole entry, looked up): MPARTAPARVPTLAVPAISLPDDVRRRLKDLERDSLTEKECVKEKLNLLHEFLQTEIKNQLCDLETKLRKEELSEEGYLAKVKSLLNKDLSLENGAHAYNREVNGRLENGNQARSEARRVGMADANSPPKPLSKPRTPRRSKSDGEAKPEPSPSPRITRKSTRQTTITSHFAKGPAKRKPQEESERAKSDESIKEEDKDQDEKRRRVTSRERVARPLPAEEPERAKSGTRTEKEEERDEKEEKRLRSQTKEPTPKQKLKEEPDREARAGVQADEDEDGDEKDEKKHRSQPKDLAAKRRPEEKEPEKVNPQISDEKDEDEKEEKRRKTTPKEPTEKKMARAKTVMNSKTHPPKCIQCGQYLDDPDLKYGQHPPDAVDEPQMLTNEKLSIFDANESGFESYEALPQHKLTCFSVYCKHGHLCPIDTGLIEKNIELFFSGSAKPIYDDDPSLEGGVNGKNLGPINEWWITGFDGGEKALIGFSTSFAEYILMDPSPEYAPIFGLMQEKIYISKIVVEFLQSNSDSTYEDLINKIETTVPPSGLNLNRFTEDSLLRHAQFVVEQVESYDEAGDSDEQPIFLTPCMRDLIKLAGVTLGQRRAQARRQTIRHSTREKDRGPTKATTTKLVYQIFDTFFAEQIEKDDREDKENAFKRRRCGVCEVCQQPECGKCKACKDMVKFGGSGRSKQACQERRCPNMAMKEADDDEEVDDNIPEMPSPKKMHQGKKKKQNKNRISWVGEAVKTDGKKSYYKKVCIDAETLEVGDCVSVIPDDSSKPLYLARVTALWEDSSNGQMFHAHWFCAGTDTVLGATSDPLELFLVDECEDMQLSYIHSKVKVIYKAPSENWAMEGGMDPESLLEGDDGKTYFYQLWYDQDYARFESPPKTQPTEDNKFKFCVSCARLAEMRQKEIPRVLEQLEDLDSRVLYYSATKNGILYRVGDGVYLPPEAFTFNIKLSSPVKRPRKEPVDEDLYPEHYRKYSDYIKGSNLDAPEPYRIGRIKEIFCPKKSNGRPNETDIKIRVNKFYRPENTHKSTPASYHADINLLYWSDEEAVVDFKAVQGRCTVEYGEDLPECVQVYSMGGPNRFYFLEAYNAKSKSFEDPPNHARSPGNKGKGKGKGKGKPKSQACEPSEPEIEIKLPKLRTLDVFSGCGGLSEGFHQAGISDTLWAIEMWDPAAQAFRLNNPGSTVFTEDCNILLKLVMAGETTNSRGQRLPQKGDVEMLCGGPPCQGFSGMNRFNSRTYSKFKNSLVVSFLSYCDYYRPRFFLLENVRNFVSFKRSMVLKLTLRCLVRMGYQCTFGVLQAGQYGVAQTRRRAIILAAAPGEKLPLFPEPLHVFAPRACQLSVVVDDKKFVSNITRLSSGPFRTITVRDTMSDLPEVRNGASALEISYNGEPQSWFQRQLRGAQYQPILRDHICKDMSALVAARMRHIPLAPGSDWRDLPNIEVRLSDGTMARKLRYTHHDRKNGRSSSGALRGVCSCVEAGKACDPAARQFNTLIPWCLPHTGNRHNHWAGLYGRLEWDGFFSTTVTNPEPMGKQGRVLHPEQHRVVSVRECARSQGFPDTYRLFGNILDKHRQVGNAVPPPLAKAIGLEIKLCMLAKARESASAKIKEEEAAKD

[2] = binned activity in either the breaklight or the SPA assay
[3] = binned activity in either the breaklight or the SPA assay, read-out: DNMT1 BioChemical (pIC50 category) (converted)
[4] = breaklight assay and/or SPA assay, repeated experimental runs, read-out: average pIC50 against DNMT1 (converted)

Compound | IC50 (DNMT3B; read-out: DNMT3B Breaklight IC50) [nM] | IC50 (DNMT3B; repeated experimental runs, read-out: average IC50, DNMT3B breaklight assay) [nM] | EC50 [1] [nM] | DNMT1 BioChemical (pIC50 category) (DNMT1; [2]) | IC50 (DNMT1; [3]) [nM] | IC50 (DNMT1; [4])
CCc1c(C#N)c(SC(C(N)=O)c2ccccc2)nc(N(C)C)c1C#N (stereo not drawn) [Example 3, 2-{[3,5-dicyano-6-(dimethylamino)-4-ethylpyridin-2-yl]sulfanyl}-2-phenylacetamide] | > 500000 | > 500000 | 316 to 1000 | – | – | –
CCc1c(C#N)c(SC(C(N)=O)c2ccccc2)nc(N(C)CCCN)c1C#N (stereo not drawn) [Example 670, 2-((6-((3-aminopropyl)(methyl)amino)-3,5-dicyano-4-ethylpyridin-2-yl)thio)-2-phenylacetamide hydrochloride] | – | – | < 316 | D (Category D: ≥6.5) | – | –
CCc1c(C#N)c(SC(C(N)=O)c2ccccc2)nc(N2CC(CN)C2)c1C#N (stereo not drawn) [Example 671, 2-((6-(3-(aminomethyl)azetidin-1-yl)-3,5-dicyano-4-ethylpyridin-2-yl)thio)-2-phenylacetamide] | – | – | < 316 | D (Category D: ≥6.5) | – | –
CCc1c(C#N)c(S[C@@H](C(N)=O)c2ccc(F)cc2F)nc(N2CC[C@H](O)C2)c1C#N [Example 674, (R)-2-((3,5-dicyano-4-ethyl-6-((S)-3-hydroxypyrrolidin-1-yl)pyridin-2-yl)thio)-2-(2,4-difluorophenyl)acetamide] | – | – | 1000 to 31600 | D (Category D: ≥6.5) | – | –
CCc1c(C#N)c(SC(C(N)=O)c2ccccc2)nc(N2CC(ONC(=N)N)C2)c1C#N (stereo not drawn) [Example 676, 2-((3,5-dicyano-4-ethyl-6-(3-(guanidinooxy)azetidin-1-yl)pyridin-2-yl)thio)-2-phenylacetamide] | – | – | 1000 to 31600 | D (Category D: ≥6.5) | – | –
N#Cc1c(SC(C(N)=O)c2ccccc2)nc(N2CC(NC(=O)C3(N)COC3)C2)c(C#N)c1C1CC1 (stereo not drawn) [Example 680, 3-amino-N-(1-(6-((2-amino-2-oxo-1-phenylethyl)thio)-3,5-dicyano-4-cyclopropylpyridin-2-yl)azetidin-3-yl)oxetane-3-carboxamide] | – | – | 1000 to 31600 | – | < 316 | –
CCc1c(C#N)c(SC(C(N)=O)c2ccccc2F)nc(N2CC[C@H](O)C2)c1C#N (stereo partly drawn) [Example 682, 2-((3,5-dicyano-4-ethyl-6-((S)-3-hydroxypyrrolidin-1-yl)pyridin-2-yl)thio)-2-(2-fluorophenyl)acetamide] | – | – | 1000 to 31600 | D (Category D: ≥6.5) | – | –
COc1c(C#N)c(SCc2ccc(N(C)S(C)(=O)=O)cc2)nc(N2CCC(N)CC2)c1C#N [Example 683, N-(4-(((6-(4-aminopiperidin-1-yl)-3,5-dicyano-4-methoxypyridin-2-yl)thio)methyl)phenyl)-N-methylmethanesulfonamide hydrochloride] | – | – | < 316 | D (Category D: ≥6.5) | – | 316 to 1000 nM and 316 nM
CCc1c(C#N)c(SC(C(N)=O)c2ccccc2)nc(N2CCC[C@H](NC3CC3)C2)c1C#N (stereo partly drawn) [Example 684, 2-((3,5-dicyano-6-((S)-3-(cyclopropylamino)piperidin-1-yl)-4-ethylpyridin-2-yl)thio)-2-phenylacetamide] | – | – | < 316 | D (Category D: ≥6.5) | – | –
CCc1c(C#N)c(SC(C(N)=O)c2ccccc2)nc(N2CC(F)(CN)C2)c1C#N (stereo not drawn) [Example 688, 2-((6-(3-(aminomethyl)-3-fluoroazetidin-1-yl)-3,5-dicyano-4-ethylpyridin-2-yl)thio)-2-phenylacetamide] | – | – | 1000 to 31600 | D (Category D: ≥6.5) | – | –
CCc1c(C#N)c(S[C@@H](C(N)=O)c2ccccc2)nc(N2CC[C@](O)(CO)C2)c1C#N [Example 689, (R)-2-((3,5-dicyano-4-ethyl-6-((R)-3-hydroxy-3-(hydroxymethyl)pyrrolidin-1-yl)pyridin-2-yl)thio)-2-phenylacetamide] | – | – | 1000 to 31600 | D (Category D: ≥6.5) | – | –
CCc1c(C#N)c(SC(C(N)=O)c2ccccc2)nc(N2CCC[C@H](NCC(F)F)C2)c1C#N (stereo partly drawn) [Example 690, 2-((3,5-dicyano-6-((S)-3-((2,2-difluoroethyl)amino)piperidin-1-yl)-4-ethylpyridin-2-yl)thio)-2-phenylacetamide] | – | – | 1000 to 31600 | D (Category D: ≥6.5) | – | –
CCc1c(C#N)c(SC(C(N)=O)c2ccccc2)nc(N2CCC[C@@H](N)C2)c1C#N (stereo partly drawn) [Example 691, 2-((6-((R)-3-aminopiperidin-1-yl)-3,5-dicyano-4-ethylpyridin-2-yl)thio)-2-phenylacetamide] | – | – | 1000 to 31600 | D (Category D: ≥6.5) | – | –
CCc1c(C#N)c(SCc2ccc(N(C)S(C)(=O)=O)cc2)nc(N2CCC(NCCO)CC2)c1C#N [Example 692, N-(4-(((3,5-dicyano-4-ethyl-6-(4-((2-hydroxyethyl)amino)piperidin-1-yl)pyridin-2-yl)thio)methyl)phenyl)-N-methylmethanesulfonamide] | – | – | < 316 | D (Category D: ≥6.5) | – | –
COc1c(C#N)c(SC(C(N)=O)c2ccccc2)nc(N2CCC(N)CC2)c1C#N (stereo not drawn) [Example 693, 2-((6-(4-aminopiperidin-1-yl)-3,5-dicyano-4-methoxypyridin-2-yl)thio)-2-phenylacetamide 2,2,2-trifluoroacetate] | – | – | < 316 | D (Category D: ≥6.5) | – | –
CCc1c(C#N)c(SC(C(N)=O)c2ccccc2)nc(N2CCC(N3CC(OC)C3)CC2)c1C#N (stereo not drawn) [Example 697, 2-((3,5-dicyano-4-ethyl-6-(4-(3-methoxyazetidin-1-yl)piperidin-1-yl)pyridin-2-yl)thio)-2-phenylacetamide] | – | – | < 316 | D (Category D: ≥6.5) | – | –
CCc1c(C#N)c(SC(C(N)=O)c2ccc(F)cc2)nc(N2CCC(N3CC(OC)C3)CC2)c1C#N (stereo not drawn) [Example 698, 2-((3,5-dicyano-4-ethyl-6-(4-(3-methoxyazetidin-1-yl)piperidin-1-yl)pyridin-2-yl)thio)-2-(4-fluorophenyl)acetamide] | – | – | < 316 | D (Category D: ≥6.5) | – | –
CCc1c(C#N)c(SC(C(N)=O)c2ccccc2)nc(N(C)C2CCN(C)C2)c1C#N (stereo not drawn) [Example 699, 2-((3,5-dicyano-4-ethyl-6-(methyl(1-methylpyrrolidin-3-yl)amino)pyridin-2-yl)thio)-2-phenylacetamide] | – | – | 1000 to 31600 | – | 316 to 1000 | –

Second part, led by results:

IC50 (DNMT3B; read-out: DNMT3B Breaklight IC50) [nM] | IC50 (DNMT3B; repeated experimental runs, read-out: average IC50, DNMT3B breaklight assay) [nM] | EC50 [1] [nM] | DNMT1 BioChemical (pIC50 category) (DNMT1; [2]) | IC50 (DNMT1; [3]) [nM] | Compound | IC50 (DNMT1; [4])
– | – | 316 to 1000 | D (Category D: ≥6.5) | – | CCc1c(C#N)c(SC(C(N)=O)c2ccccc2)nc(N(C)CC(=O)N(CCO)CCO)c1C#N (stereo not drawn) [Example 668, 2-((6-((2-amino-2-oxo-1-phenylethyl)thio)-3,5-dicyano-4-ethylpyridin-2-yl)(methyl)amino)-N,N-bis(2-hydroxyethyl)acetamide] | –
– | – | < 316 | D (Category D: ≥6.5) | – | CCc1c(C#N)c(SC(C(N)=O)c2ccccc2)nc(N(C)CC(=O)NCCO)c1C#N (stereo not drawn) [Example 669, 2-((6-((2-amino-2-oxo-1-phenylethyl)thio)-3,5-dicyano-4-ethylpyridin-2-yl)(methyl)amino)-N-(2-hydroxyethyl)acetamide] | –
– | – | < 316 | D (Category D: ≥6.5) | – | CCc1c(C#N)c(SC(C(N)=O)c2ccccc2)nc(N(C)CC(=O)NCC2(CO)CC2)c1C#N (stereo not drawn) [Example 673, 2-((6-((2-amino-2-oxo-1-phenylethyl)thio)-3,5-dicyano-4-ethylpyridin-2-yl)(methyl)amino)-N-((1-(hydroxymethyl)cyclopropyl)methyl)acetamide] | –
– | – | 316 to 1000 | – | < 316 | CCc1c(C#N)c(SC(C(N)=O)c2ccccc2)nc(N(C)CC(=O)NC2(CO)COC2)c1C#N (stereo not drawn) [Example 675, 2-((6-((2-amino-2-oxo-1-phenylethyl)thio)-3,5-dicyano-4-ethylpyridin-2-yl)(methyl)amino)-N-(3-(hydroxymethyl)oxetan-3-yl)acetamide] | –
– | – | 316 to 1000 | D (Category D: ≥6.5) | – | CCc1c(C#N)c(SC(C(N)=O)c2ccccc2)nc(N(C)CC(=O)NCCCO)c1C#N (stereo not drawn) [Example 677, 2-((6-((2-amino-2-oxo-1-phenylethyl)thio)-3,5-dicyano-4-ethylpyridin-2-yl)(methyl)amino)-N-(3-hydroxypropyl)acetamide] | –
– | – | 316 to 1000 | D (Category D: ≥6.5) | – | CCc1c(C#N)c(SC(C(N)=O)c2ccccc2)nc(N(C)CC(=O)NO)c1C#N (stereo not drawn) [Example 679, 2-((6-((2-amino-2-oxo-1-phenylethyl)thio)-3,5-dicyano-4-ethylpyridin-2-yl)(methyl)amino)-N-hydroxyacetamide] | –
– | – | 316 to 1000 | D (Category D: ≥6.5) | – | CCc1c(C#N)c(SC(C(N)=O)c2ccccc2)nc(N(C)CC(=O)NCC(C)(C)CO)c1C#N (stereo not drawn) [Example 685, 2-((6-((2-amino-2-oxo-1-phenylethyl)thio)-3,5-dicyano-4-ethylpyridin-2-yl)(methyl)amino)-N-(3-hydroxy-2,2-dimethylpropyl)acetamide] | 316 to 1000 nM and 316 nM
– | – | 1000 to 31600 | D (Category D: ≥6.5) | – | CCc1c(C#N)c(SC(C(N)=O)c2ccccc2)nc(N(C)CC(=O)NCCn2cnnc2)c1C#N (stereo not drawn) [Example 686, N-(2-(4H-1,2,4-triazol-4-yl)ethyl)-2-((6-((2-amino-2-oxo-1-phenylethyl)thio)-3,5-dicyano-4-ethylpyridin-2-yl)(methyl)amino)acetamide] | –
– | – | 1000 to 31600 | D (Category D: ≥6.5) | – | CCc1c(C#N)c(S[C@@H](C(N)=O)c2ccccc2)nc(N(C)CCCO)c1C#N [Example 695, (R)-2-((3,5-dicyano-4-ethyl-6-((3-hydroxypropyl)(methyl)amino)pyridin-2-yl)thio)-2-phenylacetamide] | –
